# Activity calls are given as the source filed them.
# Legend:
# H9c2 = assay: cells; format: functional, cell-based; settings: Rattus norvegicus, H9c2, Myocardium;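 also: confirmatory concentration-response retest of ultra-high-throughput screening hits for modulation of myocardial damage; cell death induced by hydrogen peroxide oxidative stress; compound pretreatment for 60 min then peroxide exposure for 2 h; potency is for protecting the cells against peroxide damage rather than for killing them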
# Melanocortin receptor 4 = Melanocortin receptor 4 (Homo sapiens, UniProt P32245); assay: inhibitors of MC4R cAMP signaling – cell-based, TR-FRET, biased antagonists, dose response (AID 602298); format: functional;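 also: antagonist potency against agonist-stimulated cAMP production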
# [1] = cAMP pathway inhibition in counterscreen cell line – TR-FRET cAMP detection, counter-screen for MC4R biased antagonist project, dose response (AID 602305); format: functional, cell-based;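 also: U2OS cells stimulated with forskolin near its EC80 as the cAMP inducer; potency is for inhibition of forskolin-stimulated cAMP signaling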
# [2] = biological target: Tyrosine-protein kinase Lck (Homo sapiens, UniProt P06239); format: functional;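 also: lck was assayed as one member of a kinase panel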
# [3] = biological target: Tyrosine-protein kinase BTK (Homo sapiens, UniProt Q06187); format: functional
# [4] = biological target: Serine/threonine-protein kinase N2 (Homo sapiens, UniProt Q16513); format: functional
# [5] = biological target: Serine/threonine-protein kinase TAO1 (Homo sapiens, UniProt Q7L7X3); format: functional
# [6] = biological target: Tyrosine-protein kinase ABL1 (Homo sapiens, UniProt P00519); format: functional
# [7] = biological target: Vascular endothelial growth factor receptor 2 (Homo sapiens, UniProt P35968); format: functional
# Misshapen-like kinase 1 = Misshapen-like kinase 1 (Homo sapiens, UniProt Q8N4C8); format: functional;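 also: kinome panel screen with MINK as the panel member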
# Focal adhesion kinase 1 = Focal adhesion kinase 1 (Homo sapiens, UniProt Q05397); format: functional;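 also: measured as one member of a kinome panel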
# [8] = biological target: Tyrosine-protein kinase Fyn (Homo sapiens, UniProt P06241); format: functional
# [9] = biological target: Mitogen-activated protein kinase kinase kinase kinase 4 (Homo sapiens, UniProt O95819); format: functional
# [10] = biological target: Serine/threonine-protein kinase pim-1 (Homo sapiens, UniProt P11309); format: functional
# [11] = biological target: Cell division cycle 7-related protein kinase (Homo sapiens, UniProt O00311); format: functional;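 also: value obtained from a kinome-wide kinase panel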
# [12] = biological target: Homeodomain-interacting protein kinase 2 (Homo sapiens, UniProt Q9H2X6); format: functional;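 also: measured within a kinome-wide kinase profiling panel, HIPK2 being one panel member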
# [13] = biological target: MAP kinase-interacting serine/threonine-protein kinase 2 (Homo sapiens, UniProt Q9HBH9); format: functional
# [14] = biological target: Interleukin-1 receptor-associated kinase 4 (Homo sapiens, UniProt Q9NWZ3); format: functional
# [15] = biological target: Glycogen synthase kinase-3 beta (Homo sapiens, UniProt P49841); format: functional;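 also: value comes from a broad kinome profiling panel, with GSK3B as the panel member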
# [16] = biological target: cAMP-dependent protein kinase catalytic subunit alpha (Homo sapiens, UniProt P17612); format: functional
# [17] = biological target: Dual specificity protein kinase CLK4 (Homo sapiens, UniProt Q9HAZ1); format: functional
# [18] = biological target: Protein disulfide-isomerase (Homo sapiens, UniProt P07237); assay: inhibition of PDI-driven insulin aggregation – biochemical, turbidity, absorbance, cherry-picked samples, dose response (AID 602350); format: functional
# [19] = biological target: 5'-AMP-activated protein kinase catalytic subunit alpha-1 (Homo sapiens, UniProt Q13131); format: functional
# [20] = biological target: ALK tyrosine kinase receptor (Homo sapiens, UniProt Q9UM73); format: functional;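 also: ALK tested as one member of a kinase panel screen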
# [21] = biological target: Tyrosine-protein kinase HCK (Homo sapiens, UniProt P08631); assay: Navigating the Kinome. Panel member name: HCK; format: functional
# [22] = biological target: Serine/threonine-protein kinase D3 (Homo sapiens, UniProt O94806); format: functional;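 also: determined within a kinase panel screen, with PRKCN as the panel member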
# [23] = biological target: Death-associated protein kinase 3 (Homo sapiens, UniProt O43293); format: functional;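 also: measured as one member of a kinome-wide profiling panel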
# LIM domain kinase 1 = LIM domain kinase 1 (Homo sapiens, UniProt P53667); assay: Navigating the Kinome. Panel member name: LIMK1; format: functional
# [24] = biological target: Proto-oncogene tyrosine-protein kinase ROS (Homo sapiens, UniProt P08922); format: functional;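 also: ROS1 tested as one member of a kinome-wide kinase panel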
# [25] = biological target: Calcium/calmodulin-dependent protein kinase kinase 2 (Homo sapiens, UniProt Q96RR4); assay: Navigating the Kinome. Panel member name: CAMKK2; format: functional
# [26] = biological target: Glycogen synthase kinase-3 alpha (Homo sapiens, UniProt P49840); format: functional;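 also: GSK3A result taken from a broad kinome-wide kinase panel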
# [27] = biological target: Mitogen-activated protein kinase kinase kinase kinase 2 (Homo sapiens, UniProt Q12851); format: functional;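 also: measured as one member of a kinome-wide kinase panel, with MAP4K2 as the panel entry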
# [28] = biological target: Platelet-derived growth factor receptor beta (Homo sapiens, UniProt P09619); format: functional;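 also: value comes from a kinome panel, with PDGFRB tested as one panel member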
# [29] = biological target: Cyclin-dependent kinase 5 (Homo sapiens, UniProt Q00535); format: functional;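 also: CDK5 measured as one member of a kinase profiling panel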
# [30] = biological target: T1, cAMP-dependent protein kinase catalytic subunit PRKX (Homo sapiens, UniProt P51817); format: functional
# T1 sequence (P51817 whole entry): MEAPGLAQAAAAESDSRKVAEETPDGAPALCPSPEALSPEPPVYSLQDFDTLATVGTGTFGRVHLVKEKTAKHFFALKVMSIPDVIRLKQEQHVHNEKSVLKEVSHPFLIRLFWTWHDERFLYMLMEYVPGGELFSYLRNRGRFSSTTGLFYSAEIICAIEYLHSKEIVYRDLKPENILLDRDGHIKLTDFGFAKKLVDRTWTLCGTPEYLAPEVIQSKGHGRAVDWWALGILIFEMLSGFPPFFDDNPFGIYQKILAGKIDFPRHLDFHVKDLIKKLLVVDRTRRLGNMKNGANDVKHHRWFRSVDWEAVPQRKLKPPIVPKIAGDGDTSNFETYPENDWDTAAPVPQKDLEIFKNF
# [31] = biological target: Maternal embryonic leucine zipper kinase (Homo sapiens, UniProt Q14680); format: functional
# [32] = biological target: Platelet-derived growth factor receptor alpha (Homo sapiens, UniProt P16234); assay: Navigating the Kinome. Panel member name: PDGFRA; format: functional
# Aurora kinase B = Aurora kinase B (Homo sapiens, UniProt Q96GD4); format: functional
# [33] = biological target: Rho-associated protein kinase 1 (Homo sapiens, UniProt Q13464); format: functional;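 also: measured within a broad kinome-wide panel profiling many kinases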
# [34] = biological target: Cyclin-dependent kinase 7 (Homo sapiens, UniProt P50613); format: functional;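 also: value comes from a kinome-wide kinase profiling panel in which CDK7 is one member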
# [35] = biological target: Vascular endothelial growth factor receptor 1 (Homo sapiens, UniProt P17948); format: functional;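 also: measured within a kinome-wide profiling panel, FLT1 as the panel member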
# [36] = biological target: Cyclin-dependent kinase 9 (Homo sapiens, UniProt P50750); format: functional;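 also: value from the CDK9 entry of a kinome-spanning kinase panel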
# [37] = biological target: Macrophage-stimulating protein receptor (Homo sapiens, UniProt Q04912); assay: Navigating the Kinome. Panel member name: MST1R; format: functional
# [38] = biological target: Leukocyte tyrosine kinase receptor (Homo sapiens, UniProt P29376); assay: Navigating the Kinome. Panel member name: LTK; format: functional
# [39] = biological target: Serine/threonine-protein kinase 3 (Homo sapiens, UniProt Q13188); format: functional;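 also: measured as one member of a kinome-wide kinase panel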
# Chain of Vascular endothelial growth factor receptor 2 (P35968 whole entry): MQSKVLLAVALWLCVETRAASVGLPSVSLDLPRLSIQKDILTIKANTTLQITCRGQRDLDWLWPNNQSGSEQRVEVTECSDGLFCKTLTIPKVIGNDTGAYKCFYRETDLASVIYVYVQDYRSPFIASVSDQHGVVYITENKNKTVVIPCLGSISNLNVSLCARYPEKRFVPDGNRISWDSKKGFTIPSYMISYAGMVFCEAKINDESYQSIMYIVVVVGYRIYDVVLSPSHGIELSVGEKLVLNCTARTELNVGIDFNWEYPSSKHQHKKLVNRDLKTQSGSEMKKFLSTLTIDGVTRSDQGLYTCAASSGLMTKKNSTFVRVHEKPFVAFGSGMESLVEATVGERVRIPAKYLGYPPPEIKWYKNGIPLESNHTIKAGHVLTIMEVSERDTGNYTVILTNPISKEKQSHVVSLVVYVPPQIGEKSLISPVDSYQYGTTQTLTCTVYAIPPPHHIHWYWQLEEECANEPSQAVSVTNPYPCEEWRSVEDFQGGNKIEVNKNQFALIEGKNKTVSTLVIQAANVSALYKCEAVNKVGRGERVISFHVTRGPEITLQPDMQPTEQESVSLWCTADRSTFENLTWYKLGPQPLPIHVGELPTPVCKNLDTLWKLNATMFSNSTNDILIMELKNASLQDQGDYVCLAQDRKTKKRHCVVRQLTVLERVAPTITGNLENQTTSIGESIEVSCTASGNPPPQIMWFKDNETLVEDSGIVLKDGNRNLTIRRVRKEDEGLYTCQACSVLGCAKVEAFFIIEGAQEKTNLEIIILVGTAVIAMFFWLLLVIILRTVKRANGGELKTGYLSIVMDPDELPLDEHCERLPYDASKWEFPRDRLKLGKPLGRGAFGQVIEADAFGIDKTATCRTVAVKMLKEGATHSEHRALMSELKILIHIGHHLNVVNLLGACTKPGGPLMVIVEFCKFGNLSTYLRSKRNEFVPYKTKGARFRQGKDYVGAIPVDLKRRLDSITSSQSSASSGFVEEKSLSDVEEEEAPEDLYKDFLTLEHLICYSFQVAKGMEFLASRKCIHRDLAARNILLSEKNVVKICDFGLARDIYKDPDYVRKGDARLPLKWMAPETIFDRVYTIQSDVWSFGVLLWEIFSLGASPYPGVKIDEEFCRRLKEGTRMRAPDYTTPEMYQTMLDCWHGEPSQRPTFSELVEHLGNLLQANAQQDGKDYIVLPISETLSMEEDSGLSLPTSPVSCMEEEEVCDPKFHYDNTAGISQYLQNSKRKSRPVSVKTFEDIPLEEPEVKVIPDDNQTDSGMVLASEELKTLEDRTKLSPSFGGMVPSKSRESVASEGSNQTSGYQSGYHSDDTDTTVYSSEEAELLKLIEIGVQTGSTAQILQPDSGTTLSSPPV
# Chain of Cell division cycle 7-related protein kinase (O00311 whole entry): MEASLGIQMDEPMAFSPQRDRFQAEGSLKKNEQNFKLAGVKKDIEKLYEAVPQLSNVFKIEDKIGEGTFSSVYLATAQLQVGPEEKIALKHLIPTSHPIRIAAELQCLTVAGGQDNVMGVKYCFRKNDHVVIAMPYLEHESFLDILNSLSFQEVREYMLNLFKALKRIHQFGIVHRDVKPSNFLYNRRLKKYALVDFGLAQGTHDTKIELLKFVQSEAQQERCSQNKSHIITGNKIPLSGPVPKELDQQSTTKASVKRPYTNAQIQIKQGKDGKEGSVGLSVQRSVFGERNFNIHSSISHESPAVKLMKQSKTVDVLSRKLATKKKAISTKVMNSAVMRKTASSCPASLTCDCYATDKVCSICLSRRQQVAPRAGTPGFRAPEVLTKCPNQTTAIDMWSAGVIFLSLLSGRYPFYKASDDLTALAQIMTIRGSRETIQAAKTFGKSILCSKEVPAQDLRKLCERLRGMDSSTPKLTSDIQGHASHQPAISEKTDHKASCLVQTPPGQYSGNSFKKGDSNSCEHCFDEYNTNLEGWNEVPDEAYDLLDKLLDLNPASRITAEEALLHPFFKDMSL
# Chain of Rho-associated protein kinase 1 (Q13464 whole entry): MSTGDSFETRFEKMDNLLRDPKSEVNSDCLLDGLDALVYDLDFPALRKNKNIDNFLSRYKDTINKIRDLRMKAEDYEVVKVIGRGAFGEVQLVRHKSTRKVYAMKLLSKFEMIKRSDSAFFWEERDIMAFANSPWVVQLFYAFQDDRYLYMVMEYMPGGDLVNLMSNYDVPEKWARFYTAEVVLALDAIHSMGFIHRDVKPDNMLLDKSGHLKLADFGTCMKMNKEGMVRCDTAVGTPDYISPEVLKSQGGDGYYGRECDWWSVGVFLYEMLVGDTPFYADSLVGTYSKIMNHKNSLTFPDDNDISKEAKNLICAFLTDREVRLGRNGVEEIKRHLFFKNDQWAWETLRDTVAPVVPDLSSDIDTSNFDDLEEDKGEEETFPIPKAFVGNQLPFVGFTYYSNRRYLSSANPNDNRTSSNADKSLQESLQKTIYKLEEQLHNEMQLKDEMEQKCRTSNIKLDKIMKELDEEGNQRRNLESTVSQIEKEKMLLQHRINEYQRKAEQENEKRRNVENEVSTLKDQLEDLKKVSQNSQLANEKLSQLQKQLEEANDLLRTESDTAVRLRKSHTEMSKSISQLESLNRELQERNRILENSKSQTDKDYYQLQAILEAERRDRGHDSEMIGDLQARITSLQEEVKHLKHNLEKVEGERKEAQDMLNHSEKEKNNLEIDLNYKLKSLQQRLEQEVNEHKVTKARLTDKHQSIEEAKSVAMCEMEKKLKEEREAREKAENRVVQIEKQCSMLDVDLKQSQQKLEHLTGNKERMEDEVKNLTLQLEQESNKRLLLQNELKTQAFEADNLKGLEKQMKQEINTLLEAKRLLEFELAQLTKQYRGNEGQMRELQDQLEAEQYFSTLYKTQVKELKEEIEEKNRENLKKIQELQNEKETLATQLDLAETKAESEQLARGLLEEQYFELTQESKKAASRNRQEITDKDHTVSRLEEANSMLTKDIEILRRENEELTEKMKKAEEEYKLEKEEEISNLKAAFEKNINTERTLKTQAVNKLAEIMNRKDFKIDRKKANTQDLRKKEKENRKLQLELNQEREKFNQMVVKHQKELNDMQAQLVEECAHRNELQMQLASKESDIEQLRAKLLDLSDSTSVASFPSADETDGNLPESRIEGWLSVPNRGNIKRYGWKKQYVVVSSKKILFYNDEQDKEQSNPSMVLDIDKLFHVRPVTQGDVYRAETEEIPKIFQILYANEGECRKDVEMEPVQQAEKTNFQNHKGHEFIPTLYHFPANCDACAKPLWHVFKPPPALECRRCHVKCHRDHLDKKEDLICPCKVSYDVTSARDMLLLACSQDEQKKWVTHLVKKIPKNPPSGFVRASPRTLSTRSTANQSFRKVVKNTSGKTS
# Chain of Serine/threonine-protein kinase N2 (Q16513 whole entry): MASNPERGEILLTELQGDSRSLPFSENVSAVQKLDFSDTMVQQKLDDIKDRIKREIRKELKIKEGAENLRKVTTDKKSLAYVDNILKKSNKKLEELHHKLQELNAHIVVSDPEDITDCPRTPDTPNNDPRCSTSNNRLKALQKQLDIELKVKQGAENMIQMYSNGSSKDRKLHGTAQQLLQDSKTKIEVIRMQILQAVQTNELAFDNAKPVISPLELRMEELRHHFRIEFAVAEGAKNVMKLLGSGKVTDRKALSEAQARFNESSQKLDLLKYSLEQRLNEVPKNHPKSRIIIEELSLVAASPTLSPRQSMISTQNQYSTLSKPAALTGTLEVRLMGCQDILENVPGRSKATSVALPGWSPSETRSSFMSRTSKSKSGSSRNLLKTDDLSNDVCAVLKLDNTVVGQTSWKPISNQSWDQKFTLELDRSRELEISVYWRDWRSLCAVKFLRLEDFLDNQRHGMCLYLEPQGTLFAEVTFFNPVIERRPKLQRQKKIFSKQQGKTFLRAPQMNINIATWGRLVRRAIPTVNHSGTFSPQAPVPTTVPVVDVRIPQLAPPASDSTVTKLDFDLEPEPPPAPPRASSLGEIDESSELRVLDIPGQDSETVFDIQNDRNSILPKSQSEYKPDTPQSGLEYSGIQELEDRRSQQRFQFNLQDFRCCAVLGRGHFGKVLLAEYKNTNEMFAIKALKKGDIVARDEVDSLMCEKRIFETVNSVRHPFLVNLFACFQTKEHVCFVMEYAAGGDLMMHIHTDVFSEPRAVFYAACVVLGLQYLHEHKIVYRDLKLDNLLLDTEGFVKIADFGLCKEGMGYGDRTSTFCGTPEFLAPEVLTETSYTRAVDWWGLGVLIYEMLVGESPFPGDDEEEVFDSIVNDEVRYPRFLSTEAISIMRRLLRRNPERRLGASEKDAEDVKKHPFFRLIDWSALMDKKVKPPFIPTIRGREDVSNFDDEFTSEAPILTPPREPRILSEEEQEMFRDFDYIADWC
# Chain of Cyclin-dependent kinase 9 (P50750 whole entry): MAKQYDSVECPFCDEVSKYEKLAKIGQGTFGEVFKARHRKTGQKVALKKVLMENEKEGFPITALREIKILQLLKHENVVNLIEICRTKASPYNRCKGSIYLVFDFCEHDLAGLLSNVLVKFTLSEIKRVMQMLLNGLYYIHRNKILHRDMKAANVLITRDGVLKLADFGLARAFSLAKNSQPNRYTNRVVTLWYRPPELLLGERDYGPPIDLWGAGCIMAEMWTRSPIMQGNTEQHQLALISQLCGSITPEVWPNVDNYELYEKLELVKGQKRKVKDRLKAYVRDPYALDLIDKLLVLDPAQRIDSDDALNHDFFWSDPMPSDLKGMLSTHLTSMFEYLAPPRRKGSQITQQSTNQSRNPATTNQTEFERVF
# Chain of Glycogen synthase kinase-3 beta (P49841 whole entry): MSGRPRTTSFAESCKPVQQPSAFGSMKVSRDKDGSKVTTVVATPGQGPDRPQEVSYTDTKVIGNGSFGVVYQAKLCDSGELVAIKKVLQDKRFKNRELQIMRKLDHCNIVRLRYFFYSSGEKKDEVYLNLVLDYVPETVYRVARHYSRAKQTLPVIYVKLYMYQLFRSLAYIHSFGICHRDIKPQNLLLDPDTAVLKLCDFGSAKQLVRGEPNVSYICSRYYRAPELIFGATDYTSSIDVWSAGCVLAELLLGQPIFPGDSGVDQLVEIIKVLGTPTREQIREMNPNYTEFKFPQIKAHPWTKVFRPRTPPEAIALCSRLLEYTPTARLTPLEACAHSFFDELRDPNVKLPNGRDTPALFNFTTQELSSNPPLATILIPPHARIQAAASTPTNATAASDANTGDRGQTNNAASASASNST
structure (smiles),measurement,setting,value
CS(=O)(=O)Nc1cccc(NC(=O)c2cccc3c(-c4cccc(C(N)=O)c4)coc23)c1,IC50,H9c2,> 79000 nM (inactive)
same,IC50,Melanocortin receptor 4,> 64600 nM (inactive)
same,IC50,[1],> 64600 nM (inactive)
CN(C)c1c(NC(=O)c2c(F)cccc2F)cccc1-c1nc2sccn2c1-c1ccnc(Nc2cccc(N3CCOCC3)c2)n1,Ki,[2],501 nM (active)
same,Ki,[3],> 6310 nM (inactive)
same,Ki,[4],> 5010 nM (inactive)
same,Ki,[5],> 6310 nM (inactive)
same,Ki,[6],501 nM (active)
same,Ki,[7],2000 nM (active)
same,Ki,Misshapen-like kinase 1,> 5010 nM (inactive)
same,Ki,Focal adhesion kinase 1,> 6310 nM (inactive)
same,Ki,[8],> 6310 nM (inactive)
same,Ki,[9],1260 nM (active)
Cc1cccc(CNc2cc(-c3c[nH]c4ncccc34)ncn2)c1,Ki,[10],126 nM (active)
same,Ki,[11],2.51 nM (active)
same,Ki,[12],158 nM (active)
same,Ki,[13],158 nM (active)
same,Ki,[14],501 nM (active)
same,Ki,[15],7.94 nM (active)
same,Ki,[16],158 nM (active)
same,Ki,[17],6.31 nM (active)
CCN1C[C@]2(COC(=O)c3ccccc3N)CC[C@H](OC)C34[C@@H]5C[C@H]6[C@H](OC)[C@@H]5[C@](O)(C[C@@H]6OC)[C@@](O)([C@H]13)[C@@H](OC)[C@@H]42,AC50,[18],19500 nM (active)
CCN1CCN(Cc2ccc(NC(=O)Nc3ccc(Oc4cc(NC)ncn4)cc3)cc2C(F)(F)F)CC1 [AST-487],Ki,[19],> 3160 nM (inactive)
same,Ki,[20],> 6310 nM (inactive)
same,Ki,[21],100 nM (active)
same,Ki,[22],> 3980 nM (inactive)
same,Ki,[23],3980 nM (active)
same,Ki,LIM domain kinase 1,> 3160 nM (inactive)
same,Ki,[24],2000 nM (active)
same,Ki,[25],794 nM (active)
same,Ki,[26],> 3980 nM (inactive)
same,Ki,[27],79.4 nM (active)
same,Ki,[28],7.94 nM (active)
same,Ki,[7],2.51 nM (active)
same,Ki,[29],> 3160 nM (inactive)
same,Ki,[30],> 3160 nM (inactive)
same,Ki,[31],126 nM (active)
same,Ki,[32],79.4 nM (active)
same,Ki,Aurora kinase B,> 3980 nM (inactive)
same,Ki,[33],> 3980 nM (inactive)
same,Ki,[34],> 5010 nM (inactive)
same,Ki,[35],31.6 nM (active)
same,Ki,[36],> 1580 nM (inactive)
same,Ki,[37],> 3980 nM (inactive)
same,Ki,[38],631 nM (active)
same,Ki,[39],> 2510 nM (inactive)
